Data as given in PMC7724566, “Prospects for Clinical Development of Stat5 Inhibitor IST5-002: High Transcriptomic Specificity in Prostate Cancer and Low Toxicity In Vivo” (Cancers, 2020).

Tests used:
[1] = biological target: T1, Stat5 (Homo sapiens, UniProt P42229); test: Native-gel-based Stat5 dimerization assay, CWR22Rv1 cells; type: cell-based; settings: 1 µM, 6 h, Prl (10 nM) stimulated CWR22Rv1 cells, STAT5A-eYFP
T1 construct: expressed in transfected cells; host or cells: CWR22Rv1
Source text: Having established that IST5 and IST5-M both interrupt phosphorylation of Stat5, we next investigated the potency of IST5-M vs. IST5 in suppressing dimerization of Stat5 in PC cells. First, we performed a native Polyacrylamide Gel Electrophoresis (PAGE) based Stat5 dimerization assay established originally by Fahrenkamp et al., where CWR22Rv1 cells were transfected with STAT5A-eYFP (Stat5 wild type), STAT5A-N642H-eYFP (constitutive activated Stat5 by N642H mutation, as a positive control) or STAT3-eYFP (Stat3 wild type, as a negative control) constructs for 3 days (Figure 5A). CWR22Rv1 cells were starved for 16 h, pretreated with vanadate (1 mM) for 2 h, followed by treatment with vehicle, IST5 or IST5-M (1 µM) for 6 h and stimulation with Prl (10 nM) for 1 h.
Figure 5 Both IST5 and IST5-M suppress dimerization of Stat5 with similar efficacies in prostate cancer cells. (A), IST5 and IST5-M inhibit equally potently dimerization of Stat5 in native-gel-based Stat5 dimerization assay. […] Dimerization of Stat5 was analyzed by detection of the eYFP fluorescence of the native Coomassie gel. […] (E), differences in posttranslational modifications were detected between native and recombinant STAT5a using mass spectrometry. Native STAT5a from CWR22Rv1 cells and recombinant STAT5a from E. coli were gel-purified, digested using trypsin, and analyzed by bottom-up mass spectrometry. […]

[2] = tested on: Stat5; test: Stat5 phosphorylation in K562 cells (immunoblot); type: cell-based, human; settings: 4 days
Method: (§1) In order to evaluate whether the phosphate group of IST5 is critical for IST5 activity in cell-based assays, we compared the potency of IST5 (Figure 4A) to that of IST5-M (IST5 without the phosphate group) (Figure 4B) in inhibiting phosphorylation of Stat5 in PC and CML cells. CML (K562) cells and PC (CWR22Rv1) cells were cultured for 4 days with increasing concentrations of IST5 and IST5-M (Figure 4C,D). […] Collectively, these finding indicate that IST5 and IST5-M have similar efficacies in inhibiting phosphorylation of Stat5 in both CML and PC cells.
(§2) Figure 4 IST5 and the IST5-derivative lacking the phosphate group (IST5-M), both, inhibit Stat5 phosphorylation in CML and prostate cancer cell line with high efficacy. (A), chemical structure of IST5-002 (IST5). (B), chemical structure of IST5-M (IST5 without the phosphate group. (C), IST5 and IST5-M both inhibit Stat5 phosphorylation in CML cells (K562) with high efficacy. K562 cells were treated with IST5 and IST5-M for 4 days at the concentrations indicated. Whole cell lysates (WCL) were immunoblotted with anti-pYStat5 mAb, anti-Stat5 mAb and anti-actin mAb as loading control. (D), IST5 and IST5-M, both, decrease Stat5 phosphorylation in PC cells (CWR22Rv1). CWR22Rv1 cells were treated with increasing concentrations of IST5 and IST5-M for 4 days. Stat5 was immunoprecipitated (IP) followed by immunoblotting (WB) with anti-pYStat5 mAb and anti-Stat5 mAb. Whole cell lysates (WCL) were immunoblotted with anti-actin mAb as loading control.
(§3) Cell pellets were solubilized in the lysis buffer (10 mM Tris-HCl (pH 7.6), 5 mM EDTA, 50 mM sodium chloride, 30 mM sodium pyrophosphate, 50 mM sodium fluoride, 1 mM sodium orthovanadate, 1% Triton X-100, 1 mM phenylmethylsulfonyl fluoride, 5 µg/mL aprotinin, 1 µg/mL pepstatin A and 2 µg/mL leupeptin), and protein concentrations of clarified cell lysates were determined by a simplified Bradford method (Bio-Rad, Hercules, CA, USA). The whole cell lysates were immunoprecipitated with polyclonal antibodies (Table S1) followed by incubation with protein A-Sepharose beads (GE Healthcare, Chicago, IL, USA). The cell lysates and immunoprecipitated proteins were separated on 4–12% SDS-PAGE (Life Technologies, Brown Deer, WI, USA) and transferred electrophoretically to polyvinylidene fluoride membrane (Millipore). For immunoblotting, blocking buffer was tris-buffered saline and tween 20 (TBST, 0.15 M NaCl; 0.1% Tween 20; 50 mM Tris, pH 8.0) with 3% bovine serum albumin (BSA). The immunoreaction with the specific antibodies (Table S1) was detected by horseradish peroxidase-conjugated secondary antibodies followed by enhanced chemiluminescence (GE Healthcare).

[3] = tested on: Stat5; test: Stat5 phosphorylation in CWR22Rv1 cells (IP/immunoblot); type: cell-based, human; settings: 4 days
Method: as §1, §2, §3

[4] = tested on: Stat5; set-up: method as in PMID 31548294; settings: patients treated with enzalutamide (median 6 months); cited from earlier work

T1 sequence (P42229 whole entry, species assumed): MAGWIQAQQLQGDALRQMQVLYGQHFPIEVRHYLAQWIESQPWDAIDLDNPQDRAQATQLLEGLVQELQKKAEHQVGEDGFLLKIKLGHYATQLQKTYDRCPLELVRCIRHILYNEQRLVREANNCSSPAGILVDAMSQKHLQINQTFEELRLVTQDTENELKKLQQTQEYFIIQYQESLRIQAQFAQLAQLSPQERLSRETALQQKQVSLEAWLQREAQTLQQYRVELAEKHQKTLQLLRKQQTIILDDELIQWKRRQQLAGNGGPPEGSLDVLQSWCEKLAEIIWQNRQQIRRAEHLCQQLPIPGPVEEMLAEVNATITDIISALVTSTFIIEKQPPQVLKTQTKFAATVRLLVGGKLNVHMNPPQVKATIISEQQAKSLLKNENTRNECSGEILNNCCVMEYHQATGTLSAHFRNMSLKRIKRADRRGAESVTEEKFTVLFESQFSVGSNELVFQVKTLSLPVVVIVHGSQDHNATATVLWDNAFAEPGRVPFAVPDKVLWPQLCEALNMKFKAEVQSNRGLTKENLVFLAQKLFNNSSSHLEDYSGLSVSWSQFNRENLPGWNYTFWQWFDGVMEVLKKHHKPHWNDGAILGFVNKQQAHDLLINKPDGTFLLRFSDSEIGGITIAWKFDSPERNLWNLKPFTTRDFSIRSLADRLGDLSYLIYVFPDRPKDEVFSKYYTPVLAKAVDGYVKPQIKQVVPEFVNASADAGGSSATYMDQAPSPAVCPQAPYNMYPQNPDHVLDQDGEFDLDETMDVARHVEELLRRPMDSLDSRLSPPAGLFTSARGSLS

Structure (SMILES) | inhibition of Stat5 dimerization [1] | inhibition of Stat5 phosphorylation ([2]; 2 µM, K562 cells) | IC50 ([2]; read-out: IC50, inhibition of Stat5 phosphorylation, K562 CML cells) | inhibition of Stat5 phosphorylation ([3]; 2 µM, CWR22Rv1 cells) | IC50 ([3]; read-out: IC50, inhibition of Stat5 phosphorylation, CWR22Rv1 PC cells) | PC biopsies with significantly elevated levels of Stat5 activation [4]
OCC1OC(n2cnc3c(NCc4ccccc4)ncnc32)C(O)C1O (stereo not drawn) [IST5-M] | inhibited robustly | 75–90% | ~1100 nM | 60–75% | ~1300 nM | –
CNC(=O)c1ccc(N2C(=S)N(c3ccc(C#N)c(C(F)(F)F)c3)C(=O)C2(C)C)cc1F [enzalutamide] | – | – | – | – | – | 10/10
